Results on 4 molecules are retold here after patent US11583517B2, “Dual antagonist of PGD2/DPr2 and Thromboxane A2/TPr receptors and use for treatment of maladaptive immune response or thrombotic diathesis” (priority 2020, dated 2023).

For one experiment, the system named is Parkinson's disease. Put plainly: patients with Parkinson's disease. The class given is in vivo, human.
In experiment [1] the test system is dye nephrotoxicity and acute kidney injury. Put plainly: ramatroban versus placebo prior to cardiac catheterization. In kind it is in vivo, human. The following applies: chronic kidney disease or heart failure, compared to placebo. An excerpt: Patients with chronic kidney disease or heart failure are randomized to receive ramatroban versus placebo prior to cardiac catheterization.

Experiment [2] relates to asthma and allergic rhinitis. Particulars: added to conventional therapeutic regimen.
Experiment [3] relates to Alzheimer's disease. Put plainly: AD patients randomized to four treatment groups. The following applies: long-term follow-up, compared with placebo. The class given is in vivo, human.
For experiment [4], the system named is TAO. Put plainly: TAO patient and randomized control trial versus standard of care. In kind it is in vivo, human.
The next experiment relates to acute viral pneumonia. In kind it is in vivo, human.
Another experiment concerns silicosis mice. Particulars: silica-induced mouse model; cited from earlier work.
The next experiment deals with pneumoconiosis. Put plainly: non-smoking stone crushers, chemoprophylaxis versus placebo. The following applies: 5 years.
The subject of experiment [5] is TAO. Put plainly: male smokers with TAO, ramatroban versus aspirin. The following applies: 12 months. The class given is in vivo, human. The text has this:
All patients can be prescribed standard therapies including pentoxifylline, iloprost, calcium antagonists, statins and low molecular weight heparin or oral anticoagulants. […] There is increase in blood flow in the dorsalis pedis and posterior tibial pulses arteries by doppler examination with a decrease in need for surgical procedures and amputations. Improvement was seen of active vascular lesions and pain symptoms.

The subject of a further experiment is sickle cell disease. Put plainly: SCD patient given COVID-19 vaccine with ramatroban. In kind it is in vivo, human. As for the experimental part:
A patient with sickle cell disease (SCD) has a past history of multiple vaso-occlusive crisis (VOC), acute chest syndrome (ACS) and ischemic cerebrovascular accidents. Patient is administered the AstraZeneca vaccine as prophylaxis against COVID-19. […] The same regimen is repeated at the time of the second dose of the vaccine. […] Other similar patients with SCD are found to experience high incidence of thrombotic events after COVID-19 vaccines.

In a further experiment the test system is viral infection. Put plainly: outbreak of viral infection in animal shelter facility. The class given is in vivo, dogs and cats. The following applies: older animals. An excerpt: In a large animal shelter facility, there was an outbreak of viral infection largely affecting dogs and cats leading to deaths of many older animals, while the young animals survived.

A further experiment deals with Kawasaki like disease. Particulars: in vivo.
Experiment [6] relates to primary pulmonary hypertension. Put plainly: patient with primary pulmonary hypertension. In kind it is in vivo, human. Particulars: person.
From the text: Patient is diagnosed to have primary pulmonary hypertension.
The subject of experiment [7] is Alzheimer's disease. The following applies: in vivo; cited from earlier work.
[8] abbreviates: Patient 6b, two months after start.
[9] abbreviates: retrospective analysis of COVID-19 patients.
[10] abbreviates: retrospective analysis, ramatroban continued after discharge.

Entries after “also recorded” stand apart in the source; their conditions may differ.

With `O=C(O)CCn1c2c(c3ccccc31)C[C@H](NS(=O)(=O)c1ccc(F)cc1)CC2` [Ramatroban, 3-[(3R)-3-[(4-fluorophenyl)sulfonylamino]-1,2,3,4-tetrahydrocarbazol-9-yl]propanoic acid], in the experiment on Parkinson's disease (Patient 6a), the falls entry was “stops falling” and the hallucinations result was “no longer experiences hallucinations”. For the same molecule, the cognitive function result in the experiment with Parkinson's disease (Patient 6a, at 4 months) is “significant improvement”. In the experiment on Parkinson's disease (Patient 6a, first week of treatment), the sense of balance entry is on record as “subjective improvement”. For the same molecule, in the experiment with Parkinson's disease (setting [8]), the “cognitive ability and sociability” value is “marked improvements”; the hallucinations result was “reduction”; the physical functioning result is given as “significant improvement”. Also, the “dye nephrotoxicity and acute kidney injury” value in experiment [1] is “significantly less”. The molecule also displayed an improvement in symptoms in experiment [2] of 25%. Besides, the cognition and memory entry with Alzheimer's disease [3] is “improvement”. The “blood flow to the lower extremities” value with TAO [4] (a) person) is recorded as “improvement”. The gangrenous toes entry in the experiment on TAO [4] (a), chronic smoker) is “partial resolution and healing”. The ischemic lesions result in the experiment with TAO [4] (b) randomized control trial, versus control group) is reported as “resolution”. In the experiment on TAO [4] (b) randomized control trial, with standard of care versus standard of care), the blood flow result is recorded as “improvement”. For the same molecule, in the experiment with acute viral pneumonia (long term follow up), the lung compliance entry is “higher” and the lung fibrosis entry was “significantly reduced”. In addition, the “resolution of pneumonia during the hospitalization” value in the experiment on acute viral pneumonia (versus placebo, with conventional therapy) is “significantly more rapid”. Moreover, in the experiment with silicosis mice, the “NLRP3 inflammasome, IL-1beta and caspase-1” value is “inhibiting”; the “fibrosis and resulting cardiopulmonary dysfunction” value is “inhibiting; also recorded: significantly reducing”; the “infiltration with macrophages, lymphocytes and neutrophils” value is recorded as “reducing; also recorded: markedly inhibited”; the lung compliance entry is listed as “restoring”. Moreover, the silica-induced pulmonary inflammation result in the experiment with silicosis mice is on record as “alleviated”. Also, in the experiment on pneumoconiosis, the lung compliance entry was “higher” and the lung fibrosis entry is “significantly reduced”. In the experiment with TAO [5], the “active vascular lesions and pain symptoms” value is given as “Improvement”; the “blood flow in the dorsalis pedis and posterior tibial arteries by doppler” value is on record as “increase”; the “development of ulcers in the fingertips and toes, acrocyanosis, necrosis and loss of substance” value is “significantly less”; the “need for surgical procedures and amputations” value is “decrease”. Moreover, the “antibody response to vaccine” value with sickle cell disease (AstraZeneca vaccine, ramatroban 75 mg twice a day orally for one month) was “robust”. The “VOC, ACS, myocardial infarction or stroke” value in the experiment with sickle cell disease (after vaccine, ramatroban 75 mg twice a day orally) is on record as “no recrudescence or recurrence”. In addition, in the experiment on viral infection, the infection severity result is “marked decline” and the mortality entry is reported as “marked decrease”. Also, the “pulmonary function tests and DLCO” value with COVID-19 (after 2 months) is “normal”. In addition, the “chest X-ray” value with COVID-19 (after 2 months, ramatroban continued as outpatient) was “complete resolution of the infiltrates with no evidence of any pulmonary fibrosis or scarring”. Moreover, the “time to discharge home” value in the experiment on COVID-19 (person, 75 mg twice a day) turned out to be 5 days. In addition, in the experiment with COVID-19 (setting [9]), the lymphocyte counts entry is reported as “rapid improvement”, the “need for mechanical ventilation” value is “less”, the recovery time entry is on record as “shorter” and the thrombocytopenia result is listed as “rapid recovery”. In the experiment with COVID-19 (setting [10]), the “fibrosis and scarring in the lungs” value is “reduced”; the lung function entry is “better”. Moreover, in the experiment on Kawasaki like disease, the laboratory parameters result is “marked improved” and the “prophylaxis against Kawasaki like disease” value was “remains healthy”.

As to `COc1ccccc1Oc1c(NS(=O)(=O)c2ccc(C(C)(C)C)cc2)nc(-c2ncccn2)nc1OCCO` [bosentan], the clinical response result in experiment [6] is recorded as “no response”.

Regarding `CCCc1nn(C)c2c(=O)[nH]c(-c3cc(S(=O)(=O)N4CCN(C)CC4)ccc3OCC)nc12` [sildenafil], the clinical response result in experiment [6] is given as “no response”.

On to “sodium oligomannate [sodium oligomannate (GV-971)]”, for which, in the experiment on Alzheimer's disease [7], the “cognitive impairment in Alzheimer's disease” value was “improves”. In addition, in the experiment with Alzheimer's disease [3], the cognition and memory result is “improvement”.
